These results are taken from ChEMBL document CHEMBL5442219.

Holding throughout (conditions): Compound concentration 10 µM
Experiment [1] deals with D(1A) dopamine receptor (Homo sapiens) (UniProt P21728).
Description: PDSP Primary Binding target: DRD1 - Compounds are tested at 10 uM concentration, plate are incubated at room temperature in the dark for 90 minutes. Reaction are stopped by vacuum filtration onto 0.3% polyethyleneimine soaked filter mats using Filtermate harvester. Scintilation cocktail is then melted onto microwave-dried filters on a hot plate and the radio activity is counted in Microbia counter.
Experiment [2] addresses T1, 5-hydroxytryptamine receptor 2C (Homo sapiens) (UniProt P28335).
T1 sequence (whole entry): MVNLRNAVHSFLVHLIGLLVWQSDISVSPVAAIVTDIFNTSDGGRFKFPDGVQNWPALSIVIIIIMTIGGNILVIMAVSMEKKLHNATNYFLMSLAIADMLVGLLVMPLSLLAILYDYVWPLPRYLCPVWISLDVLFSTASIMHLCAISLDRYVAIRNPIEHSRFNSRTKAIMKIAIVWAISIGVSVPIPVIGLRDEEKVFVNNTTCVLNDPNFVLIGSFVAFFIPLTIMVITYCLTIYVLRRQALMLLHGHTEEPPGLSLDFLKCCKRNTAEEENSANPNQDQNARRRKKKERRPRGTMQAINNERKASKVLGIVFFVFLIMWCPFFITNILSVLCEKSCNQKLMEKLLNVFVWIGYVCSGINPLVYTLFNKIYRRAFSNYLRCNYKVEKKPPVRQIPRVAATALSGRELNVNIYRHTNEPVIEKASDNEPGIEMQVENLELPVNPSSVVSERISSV
Description: PDSP Primary Binding target: HTR2C - Compounds are tested at 10 uM concentration, plate are incubated at room temperature in the dark for 90 minutes. Reaction are stopped by vacuum filtration onto 0.3% polyethyleneimine soaked filter mats using Filtermate harvester. Scintilation cocktail is then melted onto microwave-dried filters on a hot plate and the radio activity is counted in Microbia counter.

Experiment [3] has as its target Kappa-type opioid receptor (Homo sapiens) (UniProt P41145).
Description: PDSP Primary Binding target: OPRK1 - Compounds are tested at 10 uM concentration, plate are incubated at room temperature in the dark for 90 minutes. Reaction are stopped by vacuum filtration onto 0.3% polyethyleneimine soaked filter mats using Filtermate harvester. Scintilation cocktail is then melted onto microwave-dried filters on a hot plate and the radio activity is counted in Microbia counter.
The target in experiment [4] is T2, Alpha-2A adrenergic receptor (Homo sapiens) (UniProt P08913).
T2 sequence (whole entry): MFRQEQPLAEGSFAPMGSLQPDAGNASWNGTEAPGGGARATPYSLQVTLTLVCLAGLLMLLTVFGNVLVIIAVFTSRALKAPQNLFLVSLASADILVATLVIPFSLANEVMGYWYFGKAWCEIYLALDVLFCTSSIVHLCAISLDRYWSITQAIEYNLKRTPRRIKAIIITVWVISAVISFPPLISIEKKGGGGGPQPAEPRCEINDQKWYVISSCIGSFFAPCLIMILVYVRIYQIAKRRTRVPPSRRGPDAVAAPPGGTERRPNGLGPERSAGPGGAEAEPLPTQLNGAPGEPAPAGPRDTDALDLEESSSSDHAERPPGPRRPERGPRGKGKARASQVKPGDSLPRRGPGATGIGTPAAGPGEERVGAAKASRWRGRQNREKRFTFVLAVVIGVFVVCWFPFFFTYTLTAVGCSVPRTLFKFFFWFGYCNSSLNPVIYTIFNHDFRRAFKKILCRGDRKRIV
Description: PDSP Primary Binding target: ADRA2A - Compounds are tested at 10 uM concentration, plate are incubated at room temperature in the dark for 90 minutes. Reaction are stopped by vacuum filtration onto 0.3% polyethyleneimine soaked filter mats using Filtermate harvester. Scintilation cocktail is then melted onto microwave-dried filters on a hot plate and the radio activity is counted in Microbia counter.

The target of experiment [5] is T3, D(4) dopamine receptor (Homo sapiens) (UniProt P21917).
T3 sequence (whole entry): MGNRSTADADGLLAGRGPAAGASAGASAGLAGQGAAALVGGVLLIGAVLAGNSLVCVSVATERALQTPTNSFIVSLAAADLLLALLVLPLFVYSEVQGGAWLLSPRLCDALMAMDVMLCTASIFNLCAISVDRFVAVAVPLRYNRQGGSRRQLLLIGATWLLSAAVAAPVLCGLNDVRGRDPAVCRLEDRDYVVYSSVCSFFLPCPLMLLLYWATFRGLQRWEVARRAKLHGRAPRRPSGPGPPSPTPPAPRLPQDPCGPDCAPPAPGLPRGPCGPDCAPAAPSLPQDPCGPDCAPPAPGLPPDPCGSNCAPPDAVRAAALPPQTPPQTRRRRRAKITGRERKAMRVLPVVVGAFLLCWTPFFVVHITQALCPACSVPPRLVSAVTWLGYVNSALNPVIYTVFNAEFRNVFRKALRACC
Description: PDSP Primary Binding target: DRD4 - Compounds are tested at 10 uM concentration, plate are incubated at room temperature in the dark for 90 minutes. Reaction are stopped by vacuum filtration onto 0.3% polyethyleneimine soaked filter mats using Filtermate harvester. Scintilation cocktail is then melted onto microwave-dried filters on a hot plate and the radio activity is counted in Microbia counter.

The target of experiment [6] is T4, Alpha-1B adrenergic receptor (Homo sapiens) (UniProt P35368).
T4 sequence (whole entry): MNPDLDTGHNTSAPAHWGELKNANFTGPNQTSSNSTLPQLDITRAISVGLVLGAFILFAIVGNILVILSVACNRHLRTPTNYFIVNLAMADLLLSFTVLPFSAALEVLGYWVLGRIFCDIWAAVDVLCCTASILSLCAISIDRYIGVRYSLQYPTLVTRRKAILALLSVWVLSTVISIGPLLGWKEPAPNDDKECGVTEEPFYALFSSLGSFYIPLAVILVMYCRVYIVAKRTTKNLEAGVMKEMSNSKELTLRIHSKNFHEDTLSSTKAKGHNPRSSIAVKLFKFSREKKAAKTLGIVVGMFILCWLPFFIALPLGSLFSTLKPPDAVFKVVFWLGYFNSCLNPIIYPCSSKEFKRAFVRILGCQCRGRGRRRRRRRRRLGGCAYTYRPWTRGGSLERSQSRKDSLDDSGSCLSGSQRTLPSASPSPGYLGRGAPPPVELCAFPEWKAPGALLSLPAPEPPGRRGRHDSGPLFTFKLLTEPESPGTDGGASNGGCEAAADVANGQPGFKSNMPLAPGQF
Description: PDSP Primary Binding target: ADRA1B - Compounds are tested at 10 uM concentration, plate are incubated at room temperature in the dark for 90 minutes. Reaction are stopped by vacuum filtration onto 0.3% polyethyleneimine soaked filter mats using Filtermate harvester. Scintilation cocktail is then melted onto microwave-dried filters on a hot plate and the radio activity is counted in Microbia counter.

Experiment [7] deals with T5, 5-hydroxytryptamine receptor 1A (Homo sapiens) (UniProt P08908).
T5 sequence (whole entry): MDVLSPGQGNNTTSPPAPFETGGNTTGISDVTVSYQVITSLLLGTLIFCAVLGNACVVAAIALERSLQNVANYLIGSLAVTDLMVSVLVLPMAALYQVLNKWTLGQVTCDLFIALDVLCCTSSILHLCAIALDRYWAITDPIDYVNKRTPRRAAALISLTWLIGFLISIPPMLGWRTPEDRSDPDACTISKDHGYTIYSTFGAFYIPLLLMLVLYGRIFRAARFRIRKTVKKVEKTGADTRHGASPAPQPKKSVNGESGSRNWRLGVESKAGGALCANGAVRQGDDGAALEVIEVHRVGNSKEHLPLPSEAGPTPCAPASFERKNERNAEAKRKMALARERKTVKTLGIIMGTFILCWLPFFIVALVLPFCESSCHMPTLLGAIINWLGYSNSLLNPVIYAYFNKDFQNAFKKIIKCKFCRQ
Description: PDSP Primary Binding target: HTR1A - Compounds are tested at 10 uM concentration, plate are incubated at room temperature in the dark for 90 minutes. Reaction are stopped by vacuum filtration onto 0.3% polyethyleneimine soaked filter mats using Filtermate harvester. Scintilation cocktail is then melted onto microwave-dried filters on a hot plate and the radio activity is counted in Microbia counter.

Kappa-type opioid receptor (Homo sapiens), sequence (P41145 whole entry): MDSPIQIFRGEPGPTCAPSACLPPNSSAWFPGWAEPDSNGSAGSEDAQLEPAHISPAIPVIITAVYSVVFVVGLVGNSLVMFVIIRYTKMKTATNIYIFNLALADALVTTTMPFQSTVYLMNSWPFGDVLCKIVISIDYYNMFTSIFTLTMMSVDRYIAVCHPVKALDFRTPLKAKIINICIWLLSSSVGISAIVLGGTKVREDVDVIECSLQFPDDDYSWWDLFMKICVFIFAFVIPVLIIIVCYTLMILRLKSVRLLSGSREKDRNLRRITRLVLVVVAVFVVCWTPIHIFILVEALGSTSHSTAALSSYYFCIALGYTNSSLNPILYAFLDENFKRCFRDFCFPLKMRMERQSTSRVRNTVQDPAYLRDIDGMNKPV
D(1A) dopamine receptor (Homo sapiens), sequence (P21728 whole entry): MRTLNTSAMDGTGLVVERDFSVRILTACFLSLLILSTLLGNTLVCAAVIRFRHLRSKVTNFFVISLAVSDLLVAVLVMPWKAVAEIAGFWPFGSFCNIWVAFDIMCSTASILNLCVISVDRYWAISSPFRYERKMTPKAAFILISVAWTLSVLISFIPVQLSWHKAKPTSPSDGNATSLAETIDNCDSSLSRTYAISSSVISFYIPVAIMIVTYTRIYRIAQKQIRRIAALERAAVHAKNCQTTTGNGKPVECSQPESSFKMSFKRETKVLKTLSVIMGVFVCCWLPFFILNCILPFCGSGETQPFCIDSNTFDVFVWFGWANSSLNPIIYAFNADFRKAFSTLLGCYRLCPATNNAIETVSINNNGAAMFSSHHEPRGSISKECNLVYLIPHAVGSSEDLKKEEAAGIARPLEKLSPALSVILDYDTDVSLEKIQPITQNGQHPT

With `OCc1cc(C(O)CNCCCCCCOCCCCc2ccccc2)ccc1O` (centres undefined), the inhibition (in general, the change of the read-out against control, counted positive when it falls) in experiment [1] is 6.76%; in experiment [2] it was 60.6%; in experiment [3] it was 9.07%; in experiment [4] it was 58%; in experiment [5], 57.4%; in experiment [6], 47.7%. The inhibition in experiment [7] was 27.8%.
Regarding `CS(=O)(=O)NC[C@H]1CC[C@H](Nc2nc3c(s2)CCSc2ccccc2-3)CC1`, the inhibition in experiment [1] is 14.1%; in experiment [2], 0.89%; in experiment [3] it was -0.03%; in experiment [4], 0.86%; in experiment [5], 44%; in experiment [6] it was -8.21%. The inhibition in experiment [7] was 35.6%.
For `COc1cc2nc(N3CCN(C(=O)c4ccco4)CC3)nc(N)c2cc1OC`, the inhibition in experiment [1] was 22.2%; in experiment [2], 3.9%; in experiment [3], 11%; in experiment [4] it was 42.3%; in experiment [5], 27.4%; in experiment [6], 0%. Moreover, the inhibition in experiment [7] is 8.03%.
Consider `CC(C)NCC(O)COc1cccc2[nH]ccc12` (centres undefined), for which the inhibition in experiment [1] is 29.3%; in experiment [2], 7.77%; in experiment [3], 46.9%; in experiment [4] it was 29%; in experiment [5] it was 69.4%; in experiment [6], 6.47%. Moreover, in experiment [7], the inhibition was 94.1%.
In the case of `CC(C)[C@H](CO)Nc1nc(Nc2cccc(Cl)c2)c2ncn(C(C)C)c2n1`, the inhibition is 20.4% in experiment [1]; 51% in experiment [2]; 34.6% in experiment [3]; 6.44% in experiment [4]; 62.7% in experiment [5]; 12.9% in experiment [6]. In addition, the inhibition in experiment [7] is 5.71%.
Regarding `CN1CCC(=C2c3ccccc3CC(=O)c3sccc32)CC1`, the inhibition was 82.8% in experiment [1]; 93.2% in experiment [2]; 20.8% in experiment [3]; 80.9% in experiment [4]; 25.6% in experiment [5]; 1.66% in experiment [6]. The inhibition in experiment [7] is 6.57%.
As for `COC(=O)[C@H]1[C@H]2C[C@H]3c4[nH]c5ccccc5c4CCN3C[C@H]2CC[C@@H]1O`, the inhibition in experiment [1] is 32.4%; in experiment [2] it was 2.54%; in experiment [3] it was 19%; in experiment [4] it was 98.3%; in experiment [5], 40.2%; in experiment [6], 58.4%. Further, the inhibition in experiment [7] was 1.62%.
On to `OC[C@H]1O[C@@H](n2cnc3c(NC4CCCC4)ncnc32)[C@H](O)[C@@H]1O`, for which the inhibition in experiment [1] is -1.28%; in experiment [2], -3.43%; in experiment [3] it was -5.12%; in experiment [4] it was -6.3%; in experiment [5], 34%; in experiment [6], 9.65%. In addition, in experiment [7], the inhibition was -5.74%.
Turning to `Cc1ccc2c(c1)c1c(n2CCc2ccc(C)nc2)CCN(C)C1`, the inhibition in experiment [1] was 39.2%; in experiment [2], 81.4%; in experiment [3], 20%; in experiment [4] it was 69.7%; in experiment [5] it was 52.7%; in experiment [6] it was 85%. The inhibition in experiment [7] was 39.1%.
As to `Cc1cn2cc(CC(=O)N3CCC4(CC3)CN(Cc3ccc(-n5nccn5)cc3Cl)C4)nc2s1`, the inhibition in experiment [1] is -5.26%; in experiment [2], -3.75%; in experiment [3] it was 35.7%; in experiment [4], 9.33%; in experiment [5], 50.6%; in experiment [6], 33.4%. Also, the inhibition in experiment [7] is 13%.
In the case of `CCc1nn(CCCN2CCN(c3cccc(Cl)c3)CC2)c(=O)n1CCOc1ccccc1`, the inhibition in experiment [1] was 77.7%; in experiment [2] it was 102%; in experiment [3], 49.2%; in experiment [4], 91.1%; in experiment [5] it was 89.3%; in experiment [6] it was 97.5%. The inhibition in experiment [7] is 42.6%.
`Cc1nn(C)c(C)c1-c1cccc2c1CC[C@H](N(C)C)C2`: the inhibition was 19.8% in experiment [1]; 13.1% in experiment [2]; 23.1% in experiment [3]; 89.8% in experiment [4]; 24.5% in experiment [5]; 1.62% in experiment [6]. Further, in experiment [7], the inhibition is 51.8%.
In the case of `Clc1ccc(CCCOCCCN2CCCCC2)cc1`, the inhibition in experiment [1] is 12.1%; in experiment [2] it was 57%; in experiment [3] it was 40.4%; in experiment [4], -7.75%; in experiment [5], 21.5%; in experiment [6], 5.07%. Besides, in experiment [7], the inhibition is 16.8%.
As for `COc1ccc(NC(=O)c2ccc(-c3ccc(-c4noc(C)n4)cc3C)cc2)cc1OCCN(C)C`, the inhibition in experiment [1] is 47.9%; in experiment [2], 98.3%; in experiment [3], 44%; in experiment [4], 99.4%; in experiment [5], 45.4%; in experiment [6] it was 26.8%. Also, the inhibition in experiment [7] was 32.1%.
Turning to `N#Cc1c(N)nc(SCc2csc(-c3ccc(Cl)cc3)n2)c(C#N)c1-c1ccc(OCCO)cc1`, the inhibition in experiment [1] is 11.3%; in experiment [2] it was 39.9%; in experiment [3], -8.5%; in experiment [4], 26.7%; in experiment [5] it was 38.4%; in experiment [6] it was 7.17%. Further, the inhibition in experiment [7] was -0.89%.
Consider `CN1CCC(C(=O)c2cccc(NC(=O)c3c(F)cc(F)cc3F)n2)CC1`, for which the inhibition is 15.1% in experiment [1]; 6.11% in experiment [2]; 69.2% in experiment [3]; 19.9% in experiment [4]; 14% in experiment [5]; 8.88% in experiment [6]. Also, in experiment [7], the inhibition is 4.22%.
Regarding `O=c1ccc2ccc(OCCCCN3CCN(c4cccc5sccc45)CC3)cc2[nH]1`, the inhibition is 82.6% in experiment [1]; 103% in experiment [2]; 13.9% in experiment [3]; 104% in experiment [4]; 101% in experiment [5]; 97.3% in experiment [6]. In experiment [7], the inhibition is 103%.
